In brackets after ≈: the same amount, converted by molar mass. Entries after “also recorded” stand apart in the source; their conditions may differ. Like-named read-outs stand apart in the source and are kept apart here.
Experiments:
[1] = test system: influenza A virus (strain A/WSN/33 (H1N1)) proteins PB1, NP, M1, NS1; format: cell-based
[2] = test system: influenza A virus (strain A/WSN/33 (H1N1)) RNA transcription; format: cell-based
[3] = molecular target: IAV polymerase (PB1, PB2, PA, NP) (Influenza A virus, UniProt P03427+P03430+P15659); format: cell-based
[4] = molecular target: viral polymerase complex (PA, PB1, NP, Strep-PB2) (Influenza A virus, UniProt P03427+P03430+P15659); format: cell-based
[5] = test system: influenza A virus (A/Panama/2007/1999 (H3N2))
[6] = test system: influenza A virus (strain A/WSN/33 (H1N1)); conditions: for IC50: read-out: IC50 IAV (Strain WSN/33 (H1N1)), A549 cells
[7] = test system: influenza A virus (strain A/WSN/33 (H1N1))
Na+/K+-ATPase = test system: Na+/K+-ATPase; set-up: method as in PMID 30798081; conditions: cited from earlier work
in vitro [8] = conditions: human
Method: (§1) A549 and MDCK cells were seeded in 96-well plates and grown overnight. […] Next, 15 µL of sterile water or Triton X-100 10% (CytoSelect^TM LDH Cytotoxicity Assay Kit) were added to each well in DMEM or MEM, for 10 min, at room temperature. Supernatants were collected and stored at −80 °C until used. Supernatants (90 µL) were transferred to clean 96-well plates and 10 µL of LDH Reagent (CytoSelect^TM LDH Cytotoxicity Assay Kit) were added to each sample and incubated for 20 min. Quantification was performed using a spectrophotometer at 405 nm. The concentration of each sample that reduced cell viability by 50% was estimated as CC50.

in vitro [9] = conditions: dog
Method: as §1

[10] = test system: influenza A virus (strain A/WSN/33 (H1N1)); test: microbe, parasite or virus in culture; conditions: A549, 24 h, read-out: IC50 IAV (Strain WSN/33 (H1N1)), A549 cells
[11] = test system: influenza A virus (strain A/WSN/33 (H1N1)); test: microbe, parasite or virus in culture; conditions: MDCK, 24 h, read-out: IC50 IAV (Strain WSN/33 (H1N1)), MDCK cells
[12] = test system: human tumor-free lung tissue explants; test: Viability of human tumor-free lung explants (LDH release); conditions: treated lung tissues, 48 h p.i.
[13] = test system: influenza A virus (A/Panama/2007/1999 (H3N2)); set-up: method as in PMID 31826721; conditions: pre-treatment for 1 h, human lung tissues, IAV A/Panama/2007/1999 (H3N2); cited from earlier work
IAV (strain A/PR/8/34) = test system: IAV (strain A/PR/8/34); set-up: method as in PMID 21899996; conditions: MDCK cells, cited from earlier work

| Compound | early (NS1, NP, PB1) and late (M1) viral protein expression [1] | viral mRNA levels (NP segment 5, M1 segment 7) [2] | decrease of polymerase activity [3] | viral polymerase complex assembly (PA, PB1, NP in complex precipitates) [4] | viral replication / viral titers [5] | reduction of viral titers [6] [%] | IC50 [6] [nM] | fold by which the IC50 of oleandrigenin-β-D-glucosyl (1→4)-β-D-digitalose is higher than that of the compound [7] [fold] | Na+/K+-ATPase inhibition (Na+/K+-ATPase) | CC50 (in vitro [8]) [µM] | CC50 (in vitro [9]) [µM] | IC50 [10] [nM] | IC50 [11] [nM] | tissue integrity / tissue toxicity (LDH release) [12] | further results |
| --- | --- | --- | --- | --- | --- | --- | --- | --- | --- | --- | --- | --- | --- | --- | --- |
| C[C@]12CC[C@H](NC(=O)CNCCO)C[C@H]1CC[C@@H]1[C@@H]2CC[C@]2(C)[C@@H](C3=CC(=O)OC3)CC[C@]12O [C10] | decreased | decreased | > 50% | interfered | completely abrogated viral replication; also recorded: below the detection limit | > 50 | 57 ± 2 | 19 | inhibited | > 5 | > 5 | ~60 | ~60 | did not reduce tissue integrity | reduction of viral titers [5]: 4 logs |
| C[C@]12CC[C@H](NC(=O)CO)C[C@H]1CC[C@@H]1[C@@H]2CC[C@]2(C)[C@@H](C3=CC(=O)OC3)CC[C@]12O [C11, 3β-(hydroxyacetyl)amino-3-deoxydigitoxigenin] | decreased | decreased | approximately 40% | interfered | abolished viral replication; also recorded: below the detection limit | > 50 | 62 | 17 | inhibited | > 5 | > 5 | ~60 | ~60 | > 2 fold over control | reduction of polymerase activity [3]: no significant reduction; IC50 ([7]; read-out: IC50 IAV (Strain WSN/33 (H1N1)), MDCK cells): 66 ± 6 nM |
| C[C@]12CC[C@H](O)C[C@H]1CC[C@@H]1[C@@H]2CC[C@]2(C)[C@@H](C3=CC(=O)OC3)CC[C@]12O [Digitoxigenin, digitoxigenin, reference compound] | – | – | – | – | – | > 50 | – | – | – | – | – | 70 ± 10 | 72 ± 5 | – | SI (CC50/IC50), A549 cells [6]: 92.366; SI (CC50/IC50), MDCK cells [7]: 88.052; CC50 at 24 h (in vitro [8]): > 5 µM; CC50 at 24 h (in vitro [9]): > 5 µM |
| CO/C1=C\C(C)=C\[C@@H](C)[C@@H](O)[C@@H](C)C/C(C)=C/C=C/[C@H](OC)[C@@H]([C@@H](C)[C@@H](O)[C@H](C)[C@@]2(O)C[C@@H](O)[C@H](C)[C@@H](C(C)C)O2)OC1=O [bafilomycin A] | – | – | – | – | – | – | – | – | – | – | – | – | – | – | IAV replication in lung tissues [13]: abolished IAV replication |
| COC1C(O)C(OC2CCC3(C)C(CCC4C3CCC3(C)C(C5=CC(=O)OC5)C(OC(C)=O)CC43O)C2)OC(C)C1OC1OC(CO)C(O)C(O)C1O [oleandrigenin-β-D-glucosyl (1→4)-β-D-digitalose] | – | – | – | – | – | – | – | – | – | – | – | – | – | – | IC50 (IAV (strain A/PR/8/34); strain A/PR/8/34, converted from µg/mL, read-out: IC50, IAV titer reduction): 1140 nM; IC50, IAV titer reduction (IAV (strain A/PR/8/34); strain A/PR/8/34): 0.86 µg/mL (≈ 1.14 µM) |

Reference: PMC7587960 (Molecules, 2020)
